Laboratory results as given in US7067633B2, “Targeting cellular entry, cell survival, and pathogenicity by dynein light chain 1/PIN in human cells” (Board of Regents, The University of Texas System, priority 2003, dated 2006).

Assays:
[1] = tested on: Ishikawa and MCF-7/TAMR1 cells; experiment: Growth of Tam-resistant cells (cell number); assay type: cell-based, human
Procedure: FIGS. 22A–22F—DLC1 deregulation potentiates ligand-induced growth and anchorage-independence. FIG. 22A: DLC1 upregulation potentiates growth stimulation by E2 in a Tam-insensitive manner. MCF-7/DLC1 cells were treated with or without Dox and then with E2 (10^−9M) or Tam (10^−8M) for 5 days, and the cell number was determined. FIG. 22B: DLC1 upregulation promotes anchorage independence. […] FIG. 22C: DLC1 expression supports optimum growth of Tam-resistant cells. Ishikawa and MCF-7/TAMR1 cells were transfected with control or DLC siRNA for 48 h and then treated with or without Tam (10^−8M) for 96 h, and the cell number was determined. FIG. 22D: DLC1-mediated potentiation of ER transactivation depends on the Pak1 status in Ishikawa and MCF-7/TAMR1 cell lines. Ishikawa and MCF-7/TAMR1 cells were transfected with control or Pak1 siRNA for 48 h and then with ERE-luc for 24 h and treated with E2 (10^−9M) for 24 h and ERE-luc activity was measured. FIG. 22E: Pak1 expression level influences the growth of Tam resistant cells. Ishikawa and MCF-7/TAMR1 cells were treated with control or Pak1 siRNA for 48 h and treated with or without Tam (10^−8M) for 4 days, and cell number was determined. FIG. 22F: Co-downregulation of Pak1 and DLC1 in Tam-resistant cells restores Tam-sensitivity. […]

pS2 gene chromatin = experiment: Chromatin immunoprecipitation (ChIP), pS2 promoter; assay type: cell-based, human; conditions: DLC1 overexpression in MCF-7/DLC1 cells
Text: FIG. 14A: Characterization of MCF-7 cells expressing T7-DLC1 under a tet-inducible promoter. Time and dose dependent upregulation of Dox-mediated T7-DLC1 expression. FIG. 14B: DLC1 deregulation potentiates stimulation of Bcl-2 by E2 and by Tam. […] FIG. 14C: DLC1 upregulation suppress Tam ability to inhibit E2-mediated ER transactivation. MCF-7/DLC1 cells were transfected with ERE-luc. […] FIG. 14D: DLC1 deregulation potentiated E2-mediated stimulation of ERE-luc activity in Ishikawa and MCF-7/TAMR1 cells. […] FIG. 14E: Recruitment of DLC1 and ERá to the pS2 promoter chromatin. MCF-7/DLC1 cells were treated with or without Dox for 24 and then with E2 (10^−9M) for 1 h. Chromatin lysates were immunoprecipitated with anti-ER-á or anti-T7 (to detect T7-DLC1) antibodies. Upper panels show the PCR analysis of 304 bp pS2 promoter fragment associated with ER or T7-DLC1.
To delineate the significance of the DLC1 in the modulation of ER transactivation, the effect of T7-DLC1 deregulation on the recruitment of ER to the ER-target pS2 gene promoter chromatin using a chromatin immunoprecipitation (ChIP) assay with anti-ERα or anti-T7 antibodies was examined. […] When the above ChIP studies were repeated using T7 antibody to isolate T7-DLC1, it was observed that both basal and ligand-activated DLC1 were also recruited to pS2 gene chromatin (FIG. 14E). […]

ZR75 cells = experiment: Tumorigenicity of stably expressing ZR75 cells in nude mice; assay type: in vivo; conditions: 5×10^6 cells, no exogenous estradiol
Procedure: FIGS. 6A–6E—DLC1/PIN overexpression potentiates anchorage-independent growth and promotes tumorigenesis. FIG. 6A: Effect DLC1/PIN expression on anchorage-independent growth of ZR75 cells. The anchorage-independent growth potential of DLC1/PIN-expressing clones was measured by the ability of the cells to form colonies on soft agar. […] Error bars represent standard error of mean. FIG. 6B: Western blot analysis of the expression of DLC1/PIN and Pak1 in lysates from cells derived from MCF10AT model system. […] FIG. 6C: Nude mice were injected with 5×10^6 cells stably expressing pcDNA or wild type DLC1/PIN (clone#2) or mutant DLC1/PIN^del88-89 and tumor growth was measured at weekly intervals. […] Tumor growth was only observed in cells expressing wild type DLC1/PIN but not detected in mutant expressing cells. FIG. 6E: Morphology of tumor and expression of T7-DLC1/PIN in DLC1/PIN-induced tumors as measured by H&E and anti T7 staining respectively.
Cell proliferation, soft-agar, and tumorigenicity assays. […] For xenograft studies, 5×10^6 cells were implanted subcutaneously into mammary fat-pads of 10 nude mice, as previously described (Bagheri et al., 2001), and allowed to grow for 20 weeks; tumor size was then measured. […]

Molecule: CC/C(=C(\c1ccccc1)c1ccc(OCCN(C)C)cc1)c1ccccc1 [tamoxifen]
- growth of cells with downregulated DLC ([1]; Tam 96 h): further reduced the growth
- growth of cells with downregulated Pak1 ([1]; Tam 4 days): no further significant effect
- ER interaction with the pS2 gene chromatin (pS2 gene chromatin): enhanced ER interaction

Molecule: DLC1/PIN^del 88-89: DLC1/PIN mutant in which Ser88 and amino acid 89 were deleted
- tumorigenic potential (ZR75 cells): did not exhibited any tumorigenic potential
